Data taken from PubChem BioAssay AID588632 (Broad Institute, 2011).
Results filed as inconclusive are left out. The source made the active and inactive calls.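 The calls were made as follows: active = compounds lowering signal with fitted half-maximal concentration within ten times the top tested dose in every test run; inconclusive = test runs disagree, or a run had a weak flat or poor fit; inactive = every test run inactive.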

Biological target: Serine/threonine-protein kinase 33 (Homo sapiens) (UniProt Q9BYT3)
Sequence (Q9BYT3 whole entry, looked up): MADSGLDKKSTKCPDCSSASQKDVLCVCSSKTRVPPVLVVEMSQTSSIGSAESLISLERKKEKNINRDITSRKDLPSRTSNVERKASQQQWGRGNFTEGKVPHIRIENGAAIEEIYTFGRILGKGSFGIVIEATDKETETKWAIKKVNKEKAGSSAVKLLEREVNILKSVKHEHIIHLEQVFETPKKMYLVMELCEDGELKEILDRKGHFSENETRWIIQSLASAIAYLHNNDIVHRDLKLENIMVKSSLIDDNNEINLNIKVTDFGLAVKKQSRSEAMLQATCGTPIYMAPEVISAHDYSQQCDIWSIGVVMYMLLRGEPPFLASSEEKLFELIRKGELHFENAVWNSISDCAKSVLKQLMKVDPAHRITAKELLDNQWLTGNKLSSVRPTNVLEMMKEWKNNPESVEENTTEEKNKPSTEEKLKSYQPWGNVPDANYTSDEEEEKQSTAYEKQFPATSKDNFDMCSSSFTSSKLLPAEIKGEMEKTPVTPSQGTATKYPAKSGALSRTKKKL
Experiment: STK33 kinase inhibitors, potency, dose response, biochemical, ADP-Glo luminescence, dry powder (AID 588632)
Settings: purified STK33, MBP phosphorylation; for activity change, negative = inhibition: at 10 µM (top of the series)

SMILES	activity change, negative = inhibition	AC50 [nM]
CCC(CO)Oc1cc(NC(=O)c2ccc(N)cc2)c2ncn(C(C)C)c2c1 (stereo not drawn)	inactive	
COCCCOc1cc(NCc2ccccc2)c2ncn(C(C)C)c2c1	inactive	
Nc1nc(-c2cc(O)ccc2[N+](=O)[O-])cc(-c2ccccc2)c1[N+](=O)[O-]		151
CC(Oc1ccc2c(c1)c1ccnc3c4ccccc4c(=O)n2c13)C(=O)NCCN1CCOCC1 (stereo not drawn)		168
COc1cc(/C=N/n2c(-c3ccccc3)n[nH]c2=S)ccc1O		695
COc1cc(N2CCN(C)CC2)ccc1Nc1ncc2c(n1)N(C)c1ccccc1C(=O)N2C		1600
COc1cc(N2CCC(N3CCN(C)CC3)CC2)ccc1Nc1ncc2c(n1)N1CCC[C@H]1CC(=O)N2C		1880
Cc1ncc(/C=C2\C(=O)Nc3ccccc32)[nH]1		795
O=C1NCCCc2c1oc1ccc(O)cc21		939
CCC(CO)Oc1cc(NC(=O)c2ccc(OC)cc2)c2ncn(C(C)C)c2c1 (stereo not drawn)	inactive	
CCC(CO)Oc1cc(NC(=O)c2ccc([N+](=O)[O-])cc2)c2ncn(C(C)C)c2c1 (stereo not drawn)	inactive	
COc1cc(N2CCC(O)CC2)ccc1Nc1ncc2c(n1)N1CCc3cccc(c31)C(=O)N2C		509
CCC(CO)Oc1cc(NC(=O)c2ccccc2N)c2ncn(C(C)C)c2c1 (stereo not drawn)	inactive	
COc1cc(N2CCN(C)CC2)ccc1Nc1ncc2c(n1)N1CCC[C@H]1CC(=O)N2C		409
COc1cc(C(=O)N2CCC(N3CCN(C)CC3)CC2)ccc1Nc1ncc2c(n1)N(C)c1ccccc1C(=O)N2C		6450
CCC(CO)Oc1cc(NC(=O)c2ccccc2Cl)c2ncn(C(C)C)c2c1 (stereo not drawn)	inactive	
CC(=O)N(C)c1ccc(N=Cc2c(O)ccc3ccccc23)cc1		1130
O=C(Nc1ccccc1-c1nc2ccccc2[nH]c1=O)c1cccs1		331
CCC(CO)Oc1cc(NCc2ccccc2)c2ncn(C3CCCC3)c2c1 (stereo not drawn)	inactive	
O=C1NC(=NCc2ccccc2)S/C1=C/c1ccc(O)cc1		522
COc1cc(/C=C2\SC(=Nc3ccccc3OC)NC2=O)ccc1O		314
COc1cc(NCc2ccccc2)c2ncn(C(C)C)c2c1	inactive	
CC(C)n1cnc2c(NCc3ccccc3)cc(OCCCN3CCOCC3)cc21	inactive	
CCOc1ccccc1C(=O)Nc1cc(Cl)ccc1O		1250

SMILES	activity change, negative = inhibition	AC50 [nM]
CCC(CO)Oc1cc(NC(=O)c2cccc(N)c2)c2ncn(C(C)C)c2c1 (stereo not drawn)	inactive	
CCC(CO)Oc1cc(NC(=O)c2cccc(OC)c2)c2ncn(C(C)C)c2c1 (stereo not drawn)	inactive	
COc1cc(N2CCN(C)CC2)ccc1Nc1ncc2c(n1)N(C)c1sccc1C(=O)N2C		1560
CCC(CO)Oc1cc(NCc2ccccc2)c2ncn(C(C)C)c2c1 (stereo not drawn)	inactive	
COc1cc(/C=C2\SC(N)=NC2=O)ccc1O		574
COc1cc(N2CCC(N3CCN(C)CC3)CC2)ccc1Nc1ncc2c(n1)N(C1CCCC1)C(C)CC(=O)N2C (stereo not drawn)		2200
CCC(CO)Oc1cc(NC(=O)c2ccccc2)c2ncn(C(C)C)c2c1 (stereo not drawn)	inactive	
CCC(CO)Oc1cc(NC(=O)c2cccc(Cl)c2)c2ncn(C(C)C)c2c1 (stereo not drawn)	inactive	
CCCn1c(NC(=O)c2cccc(S(=O)(=O)N3CCCC3)c2)nc2ccccc21		122
CCC(CO)Oc1cc(NC(=O)c2ccccc2OC)c2ncn(C(C)C)c2c1 (stereo not drawn)	inactive	
CCC(CO)Oc1cc(NC(=O)c2ccc(Cl)cc2)c2ncn(C(C)C)c2c1 (stereo not drawn)	inactive	
CCC(CO)Oc1cc(NC(=O)c2ccc(C)cc2)c2ncn(C(C)C)c2c1 (stereo not drawn)	inactive	
CCC(CO)Oc1cc(NC(=O)c2ccc(F)cc2)c2ncn(C(C)C)c2c1 (stereo not drawn)	inactive	
CC(C)n1cnc2c(Nc3cccc(Cl)c3)nc(NCCO)nc21		632
CCC(CO)Oc1cc(NC(=O)c2cccc(C)c2)c2ncn(C(C)C)c2c1 (stereo not drawn)	inactive	
O=C(Nc1ccccc1-c1ccccc1)c1ccc(Br)o1		1580
COC(=O)c1ccc(COc2ccccc2/C=C/C(=O)c2ccc(OCC(=O)O)cc2)cc1		400
Oc1ccc(Nc2nc(-c3ccccc3O)nc3ccccc23)cc1		811
CCC(CO)Oc1cc(NC(=O)c2cccc(F)c2)c2ncn(C(C)C)c2c1 (stereo not drawn)	inactive	
CCC(CO)Oc1cc(NC(=O)c2cccc([N+](=O)[O-])c2)c2ncn(C(C)C)c2c1 (stereo not drawn)	inactive	
COc1cc(N2CCN(C)CC2)ccc1Nc1ncc2c(n1)N(C1CCCC1)C(C)CC(=O)N2C (stereo not drawn)		910
CN1CCN(c2ccc(Nc3ncc4c(n3)N(C)c3ccccc3C(=O)N4C)cc2)CC1		1130
CCC(CO)Oc1cc(NC(=O)c2ccccc2C)c2ncn(C(C)C)c2c1 (stereo not drawn)	inactive	
COc1cc(C(=O)NC2CCN(C)CC2)ccc1Nc1ncc2c(n1)N(C1CCC(O)CC1)CCC(=O)N2C (stereo not drawn)		1180
